Source: article PMC6960228, “Ethoxysanguinarine, a Novel Direct Activator of AMP-Activated Protein Kinase, Induces Autophagy and Exhibits Therapeutic Potential in Breast Cancer Cells” (Frontiers in Pharmacology, 2020)

Columns and labels:
[1] = tested on: LC3-II and Beclin-1 in MCF-7, MDA-MB-231, and MDA-MB-436 cells; test: Western blot of autophagy markers; type: cell-based, human; details: dose- and time-dependent
Description: Cells were lysed in radioimmunoprecipitation assay buffer containing 50 mM Tris, pH 8.0, 150 mM NaCl, 0.1% SDS, 0.5% sodium deoxycholate, 1% NP-40, 1 mM DTT, 1 mM NaF, 1 mM sodium orthovanadate, 1 mM phenylmethylsulfonyl fluoride (PMSF; Sigma-Aldrich; Merck KGaA), and 1% protease inhibitors cocktail (EMD Millipore, Billerica, MA, USA). Protein concentration was determined using the Bradford method. Equal amounts of sample (25 µg) were separated by SDS-PAGE (8–12% gels). Electrophoresed proteins were then transferred onto polyvinylidene fluoride membranes (EMD Millipore, Billerica, MA, USA). The membranes were blocked with 5% skimmed milk in Tris-buffered saline at room temperature for 1 h. Following blocking, membranes were incubated overnight at 4°C with primary antibodies and then rinsed with Tris-buffered saline with Tween 20. […]
Figure 2 Eth induces autophagy in BC cells. […] (C): MCF-7, MDA-MB-231, or MDA-MB-436 cells transfected with pQCXIP-GFP-LC3 plasmid were treated with increasing concentrations of Eth for 24 h, and assessed by immunoﬂuorescence analyses. […] (D): MDA-MB-231 or MDA-MB-436 cells transfected with pQCXIP-GFP-LC3 plasmid were treated with Eth (2.0 µM) and/or 3-MA (1 mM) for 24 h, and assessed by immunoﬂuorescence analyses. […] (F): MCF-7, MDA-MB-231, or MDA-MB-436 cells were treated with Eth (3.5 µM, 3.0 µM, or 3.0 µM) and/or 3-MA (1 mM) for 24 h and analyzed by MTT assay. […]

AMPK = AMPK activity assay (CycLex kit) in treated cells; type: cell-based, human; details: MCF-7, MDA-MB-231, and MDA-MB-436 cells treated with Eth
Description: AMPK kinase activity was assay was performed by AMPK kinase activity kit which was purchased from CycLex Co., Ltd. (Cat#CY-1182). Absorbance was measured at 450 nm.
Next we determined whether Eth modulates the activity of the AMPK kinase. For this purpose, MCF-7, MDA-MB-231, and MDA-MB-436 cells were treated with Eth and incubated for different time periods (1, 6, 12, and 24 h).
Figure 4 Eth is a direct activator of AMPK. (A): MCF-7, MDA-MB-231, or MDA-MB-436 cells were treated with increasing concentrations of Eth for 24 h, and AMPK activity assay was performed. (B): The binding mode of Eth docked into AMPK. (C): The binding mode of Eth docked into AMPK. α subunit is green, β subunit is cyan, γ subunit is magenta and Eth is gold. (D): Details of the binding site of Eth in the ADaM site of AMPK. The main residues involved in drug interactions are shown as labeled green sticks. α subunit is green, β subunit is cyan. The pSER-108 was shown in stick and colored by gold. (E) The interaction pattern of Eth with the residues. (F): The 2D representation of the AMPK crystal structure in complex with Eth. (G): Chemical structure of Eth intermediate and Biotin-labeled Eth. (H): Viability of MCF-7, MDA-MB-231 or MDA-MB-436 cells exposed to Biotin-Eth as determined by MTT assay. […]

SMILES: CCOC1c2c(ccc3c2OCO3)-c2ccc3cc4c(cc3c2N1C)OCO4 (centres unmarked) [Eth, Ethoxysanguinarine]
- accumulation of LC3-II and Beclin-1 [1]: induced the accumulation of LC3-II and Beclin-1
- AMPK activity (AMPK): robust increase in AMPK activity
